The text below walks through data of ChEMBL document CHEMBL4742386, “4-oxo-3,4-dihydro-1,2,3-benzotriazine derivatives as modulators of gpr139” (2019).

Format in all cases: functional
The nature of test [1]: Induction of c-Fos expression in C57BL/6 mouse assessed as cFos cell count in brain at 3 mg/kg for 1 hr by immunohistochemistry (reference value: 470).
The nature of test [2]: Induction of c-Fos expression in C57BL/6 mouse assessed as cFos cell count in brain at 0.1 mg/kg for 1 hr by immunohistochemistry (reference value: 470).
A short description of test [3]: Induction of c-Fos expression in C57BL/6 mouse assessed as cFos cell count in brain at 0.3 mg/kg for 2 hrs by immunohistochemistry (reference value: 470).
A short description of test [4]: Induction of c-Fos expression in C57BL/6 mouse assessed as cFos cell count in brain at 0.3 mg/kg for 1 hr by immunohistochemistry (reference value: 470).
A short description of test [5]: Induction of c-Fos expression in C57BL/6 mouse assessed as cFos cell count in brain at 0.03 mg/kg for 1 hr by immunohistochemistry (reference value: 470).
Test [6] in a line: Induction of c-Fos expression in C57BL/6 mouse assessed as cFos cell count in brain at 0.3 mg/kg for 4 hrs by immunohistochemistry (reference value: 470).
Test [7] can be described thus: Induction of c-Fos expression in C57BL/6 mouse assessed as cFos cell count in brain at 0.3 mg/kg for 4 hrs by immunohistochemistry (reference value: 413.7).
Test [8] can be described thus: Induction of c-Fos expression in C57BL/6 mouse assessed as cFos cell count in brain at 0.03 mg/kg by immunohistochemistry (reference value: 267).
Test [9] can be described thus: Induction of c-Fos expression in C57BL/6 mouse assessed as cFos cell count in brain at 0.3 mg/kg for 2 hrs by immunohistochemistry (reference value: 413.7).
Test [10] in a line: Induction of c-Fos expression in C57BL/6 mouse assessed as cFos cell count in brain at 0.1 mg/kg by immunohistochemistry (reference value: 267).
The nature of test [11]: Induction of c-Fos expression in C57BL/6 mouse assessed as cFos cell count in brain at 0.3 mg/kg for 1 hr by immunohistochemistry (reference value: 413.7).
The nature of test [12]: Induction of c-Fos expression in C57BL/6 mouse assessed as cFos cell count in brain at 1 mg/kg by immunohistochemistry (reference value: 267).
The nature of test [13]: Induction of c-Fos expression in C57BL/6 mouse assessed as cFos cell count in brain at 0.3 mg/kg by immunohistochemistry (reference value: 267).
The nature of test [14]: Induction of c-Fos expression in C57BL/6 mouse assessed as cFos cell count in brain at 0.01 mg/kg by immunohistochemistry (reference value: 267).
A short description of test [15]: Induction of c-Fos expression in C57BL/6 mouse assessed as cFos cell count in brain at 0.1 mg/kg for 10 days by immunohistochemistry (reference value: 450). The following applies: time 10 day.
Test [16] in a line: Induction of c-Fos expression in C57BL/6 mouse assessed as cFos cell count in brain at 0.1 mg/kg for 1 days by immunohistochemistry (reference value: 352). The settings on record: time 1 day.
Test [17] can be described thus: Induction of c-Fos expression in C57BL/6 mouse assessed as cFos cell count in brain at 0.1 mg/kg for 1 hr by immunohistochemistry (reference value: 413.7).
A short description of test [18]: Induction of c-Fos expression in C57BL/6 mouse assessed as cFos cell count in brain at 0.1 mg/kg for 5 days by immunohistochemistry (reference value: 352 to 450). The settings on record: time 5 day.
Test [19] in a line: Induction of c-Fos expression in C57BL/6 mouse assessed as cFos cell count in brain at 3 mg/kg for 1 hr by immunohistochemistry (reference value: 413.7).

For `COc1cccc2nnn(CC(=O)N[C@@H](C)c3ccc(C)cc3)c(=O)c12`, the Activity in test [1] is 2023; in test [2] it was 2243; in test [3], 2777; in test [4], 2458; in test [5], 1628; in [6] it was 865.

For the compound `C[C@H](NC(=O)Cn1nnc2ccccc2c1=O)c1ccc(OC(F)(F)F)cc1` [ZELATRIAZIN], the Activity is recorded as 2170 in [7]; 986.3 in [8]; 1400 in [9]; 1381 in test [10]; 1343 in [11]; 1368 in test [12]. Further, the Activity in [13] is given as 1408; in [14] it was 1376; in [15] it was 1684; in [16], 1486; in test [17], 787.7; in [18], 1928. For the same compound, in test [19], the Activity stood at 2365.
